Assay results published in US7449197B2, “Liposome formulation of 6,9-bis[(2-aminoethyl)-amino]benzo[g]isoquinoline-5, 10-dione dimaleate” (Cell Therapeutics Europe S.r.l., priority 1999, dated 2008).
Marks after values point to notes of the source that are not given here.

What was measured:
P388 murine leukemia = assay: Antitumor activity against P388 murine leukemia in mice (survival time, T/C %); assay type: in vivo
Procedure: Animals: mice were provided by Charles River Breeding Laboratories (Calco, Como, Italy); they were male mice of 6-8 weeks under standard housing conditions. Formulations: BBR 2778 dissolved and diluted in sterile water just before administration of 10 mg/kg to mice was used as reference. The liposome formulation of Example 4 was used. Tumor model: P388 murine leukemia, provided by NCI Frederick Cancer Facility (USA) is maintained through a series of intraperitoneal transplants in DBA2 mice. Mice were transplanted with 10^6 cells/mouse of P388 leukemia, the liposome compound and the reference standard were administered i.v. at days 1, 4, 7 after tumor transplant. The antitumor activity was determined as percent increase in the survival time of mice, expressed by the T/C % ratio of the mean survival time (TMS) of the treated group (T) to the mean survival time of the control group (C): […]

CD1 mice = assay type: in vivo; settings: 40 or 60 mg/kg i.v. bolus
mice = settings: male, mouse, in vivo, iv, 40 mg/kg
Procedure: The liposome formulations according to the invention were tested in vivo for the antitumor activity and toxicity. […] In particular, the inhibitory activity on sudden deaths was evaluated compared with the control group, which was administered with a formulation of the free drug.

SMILES: NCCNc1ccc(NCCN)c2c1C(=O)c1ccncc1C2=O.O=C(O)/C=C\C(=O)O [BBR 2778 solution, 6,9-bis-[(2-aminoethyl)amino]benzo[g]isoquinoline-5,10-dione dimaleate]
- T/C % (P388 murine leukemia; 18 mg/kg/day i.v. at days 1, 4, 7 after tumor transplant): 199** %
- T/C % (P388 murine leukemia; 27 mg/kg/day i.v. at days 1, 4, 7 after tumor transplant): 226** %
- T/C % (P388 murine leukemia; 40 mg/kg/day i.v. at days 1, 4, 7 after tumor transplant, dimaleate): 159** %
- T/C % (P388 murine leukemia; 40 mg/kg/day i.v. at days 1, 4, 7 after tumor transplant, listed as BBR 2778 in solution, dimaleate): 159%
- T/C % (P388 murine leukemia; 60 mg/kg/day i.v. at days 1, 4, 7 after tumor transplant): 36** %
- death during or immediately after treatment (CD1 mice): death of some animals is observed
- toxicity (percent toxic deaths) (mice): 60.4%
